Test results as given in patent publication US20160257930A1, “NEURONAL STEM CELL DIFFERENTIATION” (priority 2013, published 2016).
“Also recorded” adds a separate entry of the source. Like-named read-outs stand apart in the source and are kept apart here.

Assays:
Assay type in all cases: cell-based, human
[1] = system: hPSC-derived neurons; assay: Fura-2 Ca2+ imaging; settings: 15 s; for intracellular Ca2+ response to glutamate receptor agonists: 100 micromolar agonist (NMDA plus 10 micromolar glycine)
Experimental: A. Exemplar time-course of Fura 2 fluorescence recording of intracellular Ca^2+ concentration in a neuron derived from hPSCs differentiated using the protocol. At each arrow, the cell was exposed sequentially for 15 s to the following solutions: ECS with high potassium chloride concentration (50 mM, isoosmotically replacing NaCl) to evoke a cell depolarization; […] ECS with low sodium chloride concentration (15 mM final, isoosmotically replaced by sodium isethionate) with 300 microM GABA, ECS containing 100 micromolar NMDA plus 10 micromolar glycine; […] The ratiometric Ca^2+ sensitive dye Fura-2-AM (Molecular Probes, Eugene, Oreg., USA) was used for Ca^2+ imaging experiments. This dye was purchased as a dry powder in 50 μg aliquots. Before use, these aliquots were dissolved in 50 μl DMSO (Sigma) by vortex. They were then incubated at 37° C. for 1 h to ensure the dye was fully dissolved. 1 μl of the 1 mg/ml Fura-2-AM stock was added to 250 μl of normal cell growth media and mixed. Cells on glass coverslips were then added to the well and incubated for 30 min at 37° C. and 5% CO2 in a humidified tissue culture incubator. Both stocks and media containing the dye were stored out of direct light to prevent photo-bleaching of the dye. This incubation allowed for Fura-2-AM to be taken up by the cells, cleaved and turned into the active dye Fura-2. Fura-2-loaded cells were placed in a specialised perfusion chamber, designed to allow direct access of the microscope oil-immersion lens with the bottom of the coverslip, mounted upon an Olympus IX71 equipped with a Cairn monochromator-based fluorescence system (Cairn Instruments, Faversham, UK) and were continuously superfused with ECS. Imaging was performed at room temperature. Fura-2 was alternately excited using fluorescence light emitted from the monochromator at 340 and 380 nm. Images at 510 nm were acquired at 0.33 or 0.2 Hz by a slow-scan CCD camera (Kinetic Imaging Ltd, Nottingham, UK). Solutions, agonists and antagonists were locally applied to the cells using the gravity-driven rapid solution changer. Raw data, in the form of emission intensities at 510 nm, during alternate excitation at 340 or 380 nm, were recorded and stored. Following background subtraction, emission ratios (340/380) were calculated off-line using Microsoft Office Excel (Microsoft, Redmond, Wash., US). Where indicated, data were normalised to the first 10 frames to allow further analysis and for comparisons.

[2] = system: iPS-derived neurons; assay: Whole-cell patch-clamp, current clamp: spontaneous action potentials and resting Vm
Excerpt: Ag/AgCl electrodes for patch-clamp were produced by leaving pure silver wire in bleach overnight. An Ag/AgCl pellet (Clark Electromedical Instruments) connected to the patch-clamp headstage was used as the bath (reference) electrode. Thin-walled, filamented, borosilicate glass tubes (World-Precision Instruments, UK) were pulled using a two-stage pipette puller (PP-830, Narishige, Japan) to give patch pipettes with a measured tip resistance of 3-6 MΩ when filled with the internal pipette solution. These pipettes were used to establish whole-cell configuration of the patch clamp technique.
Whole-cell patch-clamp was performed at room temperature. Plated down cells grown on glass coverslips were transferred into a perfusion chamber mounted on the stage of an inverted microscope equipped with phase-contrast optics mounted inside a Faraday cage on an anti-vibration air table (Wentworth Laboratories Ltd., Oxford, UK). Continuous perfusion of the cells with ECS was maintained by a gravity-fed system using a 50 mL disposable syringe as a reservoir. Continuous perfusion was maintained at a rate of approximately 2-4 ml per minute. A gravity-fed rapid solution changer (RSC, RSC-200, Bio-Logic, France) was used to apply various solutions directly to the cells when required allowing for solution changes as fast as 20 ms. Waste solution was removed via vacuum suction through a flame-pulled glass tube connected to a waste Buchner flask with Tygon tubing.
Current-clamp was used to apply current protocols, generated using Axon Laboratory's pClamp 9 software to the patched cell. These were recorded on-line for further analysis using the pClamp software. Offline data review and analysis was performed using Axon Laboratory's Clampfit 9, Microsoft Office Excel and Prism6. Spontaneous action potentials (sAPs): Cells were held in current clamp with zero current injection for recording of resting membrane potentials (Vm) and observation of any spontaneous action potentials. Recordings were made using the ‘Gap free’ protocol immediately after whole-cell access to reduce the effect of the pipette ICS dialysing with the actual cytosolic solution and thus influencing the resting membrane potential. Recordings were made for approx. 60 s for a mean calculation of Vm and to allow for spontaneous action potentials to be recorded.
Data from the current step protocols were analysed in Clampfit and exported to Excel for further processing. The average Vm during a 60 s ‘Gap Free’ recording in current clamp was taken as the resting membrane potential. In cells displaying spontaneous activity, an estimation of the baseline was made from the trace.

[3] = system: neural progenitors; assay: Cyquant cell proliferation assay; settings: increasing concentrations; assayed after 3, 6, 9 and 12 days of culture
Experimental: Cell proliferation in cultures treated with cell cycle and Notch pathway inhibitors were measured using the Cyquant™ Direct Cell Proliferation kit (Invitrogen). Briefly, 1×10^4 neural progenitors were plated per well in black, clear-bottomed 96 well plates (Nunclon) pre-treated with matrigel and cultured in ADF medium supplemented with B27 and small molecule inhibitors such as PD0332991 or DAPT (FIG. 2). Plates were processed according to the manufacturer's instructions and fluorescence Cyquant measurements were taken from triplicate cells on days 3, 6, 9 and 12 of culture using a FLUOstar Optima™ plate reader (BMG Labtech) using FITC (480 nm excitation/535 nm emission) filters in a bottom read fluorescence mode. Each measurement was calibrated by using blank suppression dye as a blank to remove background fluorescence.

[4] = system: neural progenitor cultures; assay: Ki67 immunocytochemistry of neural progenitor cultures; settings: for Ki67 immunoreactivity: 2 μM PD0332991 or 10 μM DAPT, 3 and 7 days after plating
Experimental: Cells grown on coverslips as described above were fixed with 4% paraformaldehyde at room temperature for 15 minutes. Cells were permeabilised (0.1% Triton X-100 in phosphate buffered saline) for 20 minutes at room temperature, then blocked in blocking solution (2% normal goat serum, 3% bovine serum albumin, 0.1% Triton X-100 in phosphate buffered saline for one hour. Cells were incubated with primary antibodies (rabbit anti-FOXG1, mouse anti-Sox2 (Abcam), mouse anti-ZOI (Abcam), mouse anti-Nestin (Abcam) anti-KI67 (Sigma) and anti-βIII-Tubulin (Sigma) diluted in the same buffer overnight at 4° C. Coverslips were then washed in 0.1% Triton X-100 in phosphate buffered saline 3 times for 5 minutes each and incubated with secondary antibodies (Goat anti-rabbit alexa 594 or Goat anti-mouse 488 secondary antibodies (1:400, Sigma), as appropriate diluted in blocking buffer. Coverslips were washed as above, mounted onto slides using Vectashield with DAPI and imaged using a Olympus BX61 fluorescence microscope.

[5] = 1.8 mM Ca2+ or 300 μM GABA vs control medium (0.6 mM Ca2+), weeks 1 and 2

NCCCC(=O)O [GABA, γ-aminobutyric acid]
intracellular Ca2+ response to GABA in high chloride ([1]; 300 microM GABA in ECS): all neurons responded to GABA in high chloride
intracellular Ca2+ response to GABA in low chloride ([1]; 300 microM GABA, low chloride ECS): few cells responded to GABA in low chloride
rescue of Vm [2]: evoked a hyperpolarisation
mean resting Vm [2, 5]: as effective as the increased extracellular Ca^2+
proportion of cells generating spontaneous activity [2, 5]: as effective as the increased extracellular Ca^2+; also recorded: partially mimic the effects of ACM

CN[C@H](CC(=O)O)C(=O)O [NDMA]
intracellular Ca2+ response to glutamate receptor agonists [1]: all cells responded similarly

Cc1o[nH]c(=O)c1CC(N)C(=O)O (stereo not drawn) [AMPA]
intracellular Ca2+ response to glutamate receptor agonists [1]: all cells responded similarly

CC(=O)c1c(C)c2cnc(Nc3ccc(N4CCNCC4)cn3)nc2n(C2CCCC2)c1=O [PD0332991]
cell proliferation (relative Cyquant fluorescence, proportional to cell number) [3]: concentration-dependent growth arrest; also recorded: inhibit neural progenitor proliferation
Ki67 immunoreactivity [4]: complete loss of Ki67 immunopositive cells

[Ca+2].[Cl-].[Cl-] [Ca^2+, Calcium Chloride]
mean resting Vm [2]: significant hyperpolarisation of mean resting Vm; also recorded: hyperpolarized the Vm
proportion of cells generating spontaneous activity [2]: enhancement in the proportion of cells generating spontaneous activity; also recorded: increase in spontaneous activity; also recorded: partially mimic the effects of ACM

C[C@H](NC(=O)Cc1cc(F)cc(F)c1)C(=O)N[C@H](C(=O)OC(C)(C)C)c1ccccc1 [DAPT, N-[N-(3,5-Difluorophenacetyl)-L-alanyl]-S-phenylglycine t-butyl ester]
cell proliferation (relative Cyquant fluorescence, proportional to cell number) [3]: reduces cell proliferation; also recorded: inhibit neural progenitor proliferation
Ki67 immunoreactivity [4]: more progressive loss of Ki67 immunostaining
synchronisation of cell cycle exit and differentiation ([4]; DAPT treatment alone): insufficient to synchronise cell cycle exit and differentiation

SNX-482
ACM-evoked hyperpolarization (mean Vm) [2]: abolished
